Source: US9187496B2 (priority 2009, dated 2015)

Legend:
[1] = tested on: Huh-7 cells containing HCV Con1 subgenomic replicon (GS4.1 cells); experiment: HCV replicon assay (NS5A ELISA); type: cell-based; settings: Hepatitis C virus, Huh-7; GS4.1 cells, 72 hrs, NS5A ELISA; read-out: EC50
Procedure: General Procedure: Huh-7 cells containing HCV Con1 subgenomic replicon (GS4.1 cells) were grown in Dulbecco's Modified Eagle Medium (DMEM) supplemented with 10% fetal bovine serum (FBS), 2 mM L-glutamine, 110 mg/L sodium pyruvate, 1× non-essential amino acids, 100 U/mL penicillin-streptomycin, and 0.5 mg/mL G418 (Invitrogen). For dose-response testing, the cells were seeded in 96-well plates at 7.5×10^3 cells/well in a volume of 50 μL, and incubated at 37° C./5% CO2. Three hours after plating, 50 μL of ten 2-fold serial dilutions of compounds (highest concentration, 75 μM) were added, and cell cultures were incubated at 37° C./5% CO2 in the presence of 0.5% DMSO. Alternatively, compounds were tested at a single concentration of 15 μM. In all cases, Huh-7 cells lacking the HCV replicon served as negative control. The cells were incubated in the presence of compounds for 72 hrs after which they were monitored for expression of the NS5A protein by enzyme-linked immunosorbent assay (ELISA). For this, the plates were then fixed for 1 min with acetone/methanol (1:1, v/v), washed twice with phosphate-buffered saline (PBS), 0.1% Tween 20, blocked for 1 hr at room temperature with TNE buffer containing 10% FBS and then incubated for 2 hr at 37° C. with the anti-NS5A mouse monoclonal antibody A-236 (ViroGen) diluted in the same buffer. After washing three times with PBS, 0.1% Tween 20, the cells were incubated 1 hr at 37° C. with anti-mouse immunoglobulin G-peroxidase conjugate in TNE, 10% FBS. After washing as described above, the reaction was developed with O-phenylenediamine (Zymed). The reaction was stopped after 30 min with 2 N H2SO4, and absorbance was read at 492 nm using Sunrise Tecan spectrophotometer. EC50 values were determined from the % inhibition versus concentration data using a sigmoidal non-linear regression analysis based on four parameters with Tecan Magellan software.

[2] = tested on: GS4.1 cells; experiment: Cytotoxicity evaluation in GS4.1 cells (Cell Titer 96 AQueous One); type: cell-based, human; settings: cellular viability
Procedure: For cytotoxicity evaluation, GS4.1 cells were treated with compounds as described above and cellular viability was monitored using the Cell Titer 96 AQueous One Solution Cell Proliferation Assay (Promega). CC50 values were determined from the % cytotoxicity versus concentration data with Tecan Magellan software as described above.

[3] = tested on: HCV genotype 1b Conl strain subgenomic luciferase replicon (Zluc); experiment: Luciferase replicon assay, genotype 1b; type: cell-based; settings: Hepatitis C virus, 72 h, read-out: EC50 1b
Procedure: (§1) The HCV luciferase replicon assay measures the ability of a test compound to inhibit HCV replication in cell culture after 3 days of treatment in a human hepatoma cell line (Huh-7) bearing a HCV replicon containing a luciferase-neomycin phosphotransferase fusion gene. The inhibition of HCV replication was measured by quantification of luciferase protein expression. Briefly, Huh-7 cells containing either the HCV genotype 1a H77 strain or genotype 1b Conl strain subgenomic luciferase replicon (H1a-luc or Zluc, respectively) were grown in DMEM containing glucose, L-glutamine and sodium pyruvate, 10% fetal bovine serum (FBS), 100 IU/mL penicillin, 100 μg/mL streptomycin, 2 mM GlutaMAX, non-essential amino acids and 0.25 (H1a-luc) or 0.5 (Zluc) mg/mL G418. GlutaMAX was obtained from Invitrogen, Corp.; all other media reagents were obtained from Mediatech, Inc. For dose-response testing, the cells were seeded in 96-well plates at 1×10^4 (H1a-luc) or 7.5×10^3 (Zluc) cells/well in a volume of 50 μL, and incubated at 37° C./5% CO2. Three hours after plating, 50 μL of ten 5-fold serial dilutions of compound were added, and cell cultures were incubated at 37° C./5% CO2 for 72 hours. In all cases, Huh-7 cells lacking the HCV replicon served as negative control. To assess luciferase expression, the media/compound was removed from the plates and ONE-glo Luciferase assay reagent (Promega) was added to each well. The assay plates were shaken for 3 minutes at room temperature and luciferase activity for each well was measured with a 1 sec read time on the Victor^3V multilabel counter using a 700 nm cut-off filter (Perkin Elmer). EC50 values were calculated from dose response curves from the resulting best-fit equations determined by Microsoft Excel and XLfit 4.1 software.

[4] = tested on: HCV genotype 2a-specific NS5A gene within the 1b-replicon; experiment: Luciferase replicon assay, NS5A-intergenotypic stable cell line genotype 2a; type: cell-based; settings: Hepatitis C virus, read-out: EC50 2a
Text: (§2) The nucleotide sequences of the NS5A region of genotype 2a (GenBank Accession #AB047639), genotype 3a (GenBank Accession #D17763), and genotype 4a (GenBank Accession#DQ418788) were synthesized by an outside vendor. The NS5A region of each of these genotypes included the first 11 amino acids of the protease recognition sequence of genotype 1b, as well as the last 10 amino acids of genotype 1b. The NS5A gene cassettes were excised with site specific restriction endonucleases and ligated into a ZS11-luciferase genotype 1b backbone (backbone contains the genotype 1b NS3 protease, NS4a, NS4b, and NS5b coding regions) with similarly cut restriction enzyme sites. Thus, the newly constructed plasmid contains a genotype 2a-, 3a- or 4a-specific NS5A gene within the 1b-replicon.
(§3) These new intergenotypic plasmids were used to establish stable cell lines. RNA was generated from the NS5A intergenotypic plasmids and used in conjunction with a lipofectin reagent to transfect a cured Huh7 cell line. Transfected cells were selected for with G418. After selection has occurred the stable cell lines were propagated, tested for luciferase activity, and RT-PCR with genotype specific primers (either 1a, 2a, 3a, or 4a). Stable cell lines containing the intergenotypic replicon were then fully sequenced and analysed for proper expression of NS3, NS5A and NS5B proteins.
(§4) Drug titration analysis was performed using the luciferase replicon assay described herein.
as §1

[5] = tested on: HCV genotype 3a-specific NS5A gene within the 1b-replicon; experiment: Luciferase replicon assay, NS5A-intergenotypic stable cell line genotype 3a; type: cell-based; settings: Hepatitis C virus, read-out: EC50 3a
Text: as §2, §3, §4, §1

[6] = tested on: HCV genotype 4a-specific NS5A gene within the 1b-replicon; experiment: Luciferase replicon assay, NS5A-intergenotypic stable cell line genotype 4a; type: cell-based; settings: Hepatitis C virus, read-out: EC50 4a
Text: as §2, §3, §4, §1

[7] = Cytotoxicity evaluation in luciferase replicon cells (Cell Titer 96 AQueous One); type: cell-based, human; settings: human; Table 1B, cellular viability
Procedure: For cytotoxicity evaluation, H1a-luc or Zluc cells were treated with compounds as described above and cellular viability was monitored using the Cell Titer 96 AQueous One Solution Cell Proliferation Assay (Promega). Plates were then read at 490 nm in a Victor^3V 1420 multilabel counter (Perkin Elmer) and CC50 concentrations were determined using Microsoft Excel and XLfit 4.1 software.

SMILES	EC50 [1]	CC50 [2]	EC50 [3]	EC50 [4]	EC50 [5]	EC50 [6]	CC50 at 72 h [7]
COC(=O)N[C@H](C(=O)N1CCCC1c1ncc(-c2ccc(-c3csc4cc(C(=O)OC)[nH]c34)cc2)[nH]1)C(C)C (some centres unmarked) [A164]	0.01 to 0.1 µM	10 to 75 µM	–	–	–	–	–
COC(=O)N[C@H](C(=O)N1CCCC1c1ncc(-c2ccc(-c3cc4sc(Br)cc4s3)cc2)[nH]1)C(C)C (some centres unmarked) [A168]	0.01 to 0.1 µM	10 to 75 µM	–	–	–	–	–
COC(=O)N[C@H](C(=O)N1CCC[C@H]1c1ncc(-c2ccc(-c3cn4cc(NC(=O)[C@@H]5CCCN5C(=O)[C@H](NC(=O)OC(C)(C)C)c5ccccc5)nc4s3)cc2)[nH]1)C(C)C [Compound A1, (S,S,S,R)-[1-(2-{5-[4-(6-{[1-(2-tert-butoxycarbonylamino-2-phenyl-acetyl)-pyrrolidine-2-carbonyl]-amino}imidazo[2,1-b]thiazol-2-yl)-phenyl]-1H-imidazol-2-yl}pyrrolidine-1-carbonyl)-2-methyl-propyl]-carbamic acid methyl ester]	< 0.001 µM	> 75 µM	–	–	–	–	–
COC(=O)N[C@H](C(=O)N1CCC[C@H]1C(=O)Nc1cn2cc(-c3ccc(-c4cnc([C@@H]5CCCN5C(=O)[C@@H](NC(=O)OC)C(C)C)[nH]4)cc3)sc2n1)C(C)C [Compound A2, (S,S,S,S)-(1-{2-[2-(4-{2-[1-(2-methoxycarbonylamino-3-methyl-butyryl)-pyrrolidin-2-yl]-3H-imidazol-4-yl}-phenyl)-imidazo[2,1-b]thiazol-6-ylcarbamoyl]-pyrrolidine-1-carbonyl}-2-methyl-propyl)-carbamic acid methyl ester]	0.001 to 0.01 µM	10 to 75 µM	–	–	–	–	–
CC(C)(C)OC(=O)N[C@@H](C(=O)N1CCOC[C@H]1C(=O)Nc1cn2cc(-c3ccccc3)sc2n1)c1ccccc1 [Compound A22]	> 0.1 µM	> 75 µM	–	–	–	–	–
CC(C)(C)OC(=O)N[C@@H](C(=O)N1CCC[C@H]1C(=O)Nc1cn2cc(C#Cc3ccccc3)sc2n1)c1ccccc1 [Compound A23]	> 0.1 µM	10 to 75 µM	–	–	–	–	–
COC(=O)N[C@H](C(=O)N1CCC[C@H]1c1ncc(-c2ccc(-c3cn4cc(NC(=O)[C@@H]5CCCN5C(=O)[C@H](NC(=O)OC)c5ccccc5)nc4s3)cc2)[nH]1)C(C)C [Compound A30, (S,S,S,R)-[1-(2-{5-[4-(6-{[1-(2-methoxycarbonylamino-2-phenyl-acetyl)-pyrrolidin-2-carbonyl]-amino}-imidazo[2,1-b]thiazol-2-yl)-phenyl]-1H-imidazol-2-yl}-pyrrolidine-1-carbonyl)-2-methyl-propyl]-carbamic acid methyl ester]	< 0.001 µM	> 75 µM	–	–	–	–	–
CCOC(=O)N[C@@H](C(=O)N1CCC[C@H]1C(=O)Nc1cn2cc(-c3ccc(-c4cnc([C@@H]5CCCN5C(=O)[C@@H](NC(=O)OC)C(C)C)[nH]4)cc3)sc2n1)c1ccccc1 [Compound A55, (S,S,S,R)-[1-(2-{5-[4-(6-{[1-(2-ethoxycarbonylamino-2-phenylacetyl)-pyrrolidine-2-carbonyl]-amino}imidazo[2,1-b]thiazol-2-yl)-phenyl]-1H-imidazol-2-yl}pyrrolidine-1-carbonyl)-2-methyl-propyl]-carbamic acid methyl ester]	< 0.001 µM	10 to 75 µM	–	–	–	–	–
COC(=O)N[C@H](C(=O)N1CCC[C@H]1c1ncc(-c2csc3c(-c4cnc([C@@H]5CCCN5C(=O)[C@@H](NC(=O)OC)C(C)C)[nH]4)csc23)[nH]1)C(C)C [Compound A82, ((S)-1-{(S)-2-[5-(6-{2-[(S)-1-((S)-2-methoxycarbonylamino-3-methyl-butyryl)-pyrrolidin-2-yl]-3H-imidazol-4-yl}-thieno[3,2-b]thiophen-3-yl)-1H-imidazol-2-yl]-pyrrolidine-1-carbonyl}-2-methyl-propyl)-carbamic acid methyl ester]	< 0.001 µM	10 to 75 µM	–	–	–	–	–
COC(=O)N[C@H](C(=O)N1CCCC1c1nc(-c2cc3sc(-c4cnc([C@@H]5CCCN5C(=O)[C@@H](NC(=O)OC)C(C)C)[nH]4)cc3s2)c[nH]1)C(C)C (some centres unmarked) [Compound A101]	–	–	< 0.0001 µM	0.001 to 0.01 µM	0.001 to 0.01 µM	0.001 to 0.01 µM	> 75 µM
COC(=O)N[C@H](C(=O)N1CCCC1c1nc(-c2ccc(-c3c(C(=O)OC)[nH]c4c(-c5ccc(-c6cnc(C7CCCN7C(=O)[C@@H](NC(=O)OC)C(C)C)[nH]6)cc5)csc34)cc2)c[nH]1)C(C)C (some centres unmarked) [Compound A163]	< 0.001 µM	> 75 µM	–	–	–	–	–
COC(=O)N[C@H](C(=O)N1CCC[C@H]1c1nc2cc(-c3csc4c(-c5ccc(-c6cnc([C@@H]7CCCN7C(=O)[C@H](NC(=O)OC)c7ccccc7)[nH]6)cc5)csc34)ccc2[nH]1)C(C)C [Compound A169, [(S)-1-((S)-2-{6-[6-(4-{(S)-2-[1-((R)-2-methoxycarbonylamino-2-phenyl-acetyl)-pyrrolidin-2-yl]-3H-imidazol-4-yl}-phenyl)-thieno[3,2-b]thiophen-3-yl]-1H-benzoimidazol-2-yl}-pyrrolidine-1-carbonyl)-2-methyl-propyl]-carbamic acid methyl ester]	–	–	< 0.0001 µM	< 0.0001 µM	< 0.0001 µM	< 0.0001 µM	> 75 µM
COC(=O)N[C@H](C(=O)N1CCCC1c1ncc(-c2ccc(-n3ccc4c(-c5cnc(C6CCCN6C(=O)[C@@H](NC(=O)OC)C(C)C)[nH]5)csc43)c(Cl)c2)[nH]1)C(C)C (some centres unmarked) [Compound A213]	–	–	< 0.0001 µM	–	–	–	10 to 75 µM
